7 molecules from article PMC6199744, “Development of Chemical Proteomics for the Folateome and Analysis of the Kinetoplastid Folateome” (ACS Infectious Diseases, 2018) can be followed below.

Read-outs that look alike come from different tables or passages of the source.

Format in all cases: binding
The target of test [1] is T1, HeLa cell extract proteins (Homo sapiens, UniProt O00410).
T1 construct: endogenous in cells; host or cells: HeLa cell extract
T1 sequence (O00410 1-1097): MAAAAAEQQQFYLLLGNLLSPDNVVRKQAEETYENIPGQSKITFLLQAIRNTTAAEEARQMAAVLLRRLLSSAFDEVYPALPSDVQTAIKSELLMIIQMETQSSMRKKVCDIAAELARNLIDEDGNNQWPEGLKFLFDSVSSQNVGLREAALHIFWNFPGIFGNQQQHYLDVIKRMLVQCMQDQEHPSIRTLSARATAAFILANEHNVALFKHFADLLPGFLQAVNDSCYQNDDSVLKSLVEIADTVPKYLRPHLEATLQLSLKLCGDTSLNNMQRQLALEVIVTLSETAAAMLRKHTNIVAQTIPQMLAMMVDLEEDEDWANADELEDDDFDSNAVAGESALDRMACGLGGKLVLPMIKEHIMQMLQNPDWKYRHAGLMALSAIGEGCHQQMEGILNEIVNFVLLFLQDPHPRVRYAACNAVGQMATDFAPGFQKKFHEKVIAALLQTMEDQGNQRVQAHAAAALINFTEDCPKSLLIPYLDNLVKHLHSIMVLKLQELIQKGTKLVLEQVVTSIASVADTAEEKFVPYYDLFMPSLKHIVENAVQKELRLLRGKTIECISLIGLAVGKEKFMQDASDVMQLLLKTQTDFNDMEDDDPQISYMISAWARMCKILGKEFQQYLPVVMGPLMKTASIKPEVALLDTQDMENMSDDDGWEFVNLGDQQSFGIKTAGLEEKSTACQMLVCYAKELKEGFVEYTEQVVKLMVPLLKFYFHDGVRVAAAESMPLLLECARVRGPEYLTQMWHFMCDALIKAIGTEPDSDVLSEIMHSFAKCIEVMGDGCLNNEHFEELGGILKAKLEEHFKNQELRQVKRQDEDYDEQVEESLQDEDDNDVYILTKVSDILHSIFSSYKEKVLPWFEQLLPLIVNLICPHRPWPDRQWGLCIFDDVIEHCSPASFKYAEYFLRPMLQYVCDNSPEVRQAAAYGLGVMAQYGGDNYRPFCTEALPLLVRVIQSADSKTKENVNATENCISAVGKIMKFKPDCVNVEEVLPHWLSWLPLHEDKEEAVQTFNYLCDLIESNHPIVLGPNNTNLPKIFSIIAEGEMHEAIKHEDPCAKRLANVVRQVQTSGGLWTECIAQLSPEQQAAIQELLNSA

Test [2] addresses T2, HeLa cell extract proteins (Homo sapiens, UniProt O75153).
T2 construct: endogenous in cells; host or cells: HeLa cell extract
T2 sequence (O75153 1-1309): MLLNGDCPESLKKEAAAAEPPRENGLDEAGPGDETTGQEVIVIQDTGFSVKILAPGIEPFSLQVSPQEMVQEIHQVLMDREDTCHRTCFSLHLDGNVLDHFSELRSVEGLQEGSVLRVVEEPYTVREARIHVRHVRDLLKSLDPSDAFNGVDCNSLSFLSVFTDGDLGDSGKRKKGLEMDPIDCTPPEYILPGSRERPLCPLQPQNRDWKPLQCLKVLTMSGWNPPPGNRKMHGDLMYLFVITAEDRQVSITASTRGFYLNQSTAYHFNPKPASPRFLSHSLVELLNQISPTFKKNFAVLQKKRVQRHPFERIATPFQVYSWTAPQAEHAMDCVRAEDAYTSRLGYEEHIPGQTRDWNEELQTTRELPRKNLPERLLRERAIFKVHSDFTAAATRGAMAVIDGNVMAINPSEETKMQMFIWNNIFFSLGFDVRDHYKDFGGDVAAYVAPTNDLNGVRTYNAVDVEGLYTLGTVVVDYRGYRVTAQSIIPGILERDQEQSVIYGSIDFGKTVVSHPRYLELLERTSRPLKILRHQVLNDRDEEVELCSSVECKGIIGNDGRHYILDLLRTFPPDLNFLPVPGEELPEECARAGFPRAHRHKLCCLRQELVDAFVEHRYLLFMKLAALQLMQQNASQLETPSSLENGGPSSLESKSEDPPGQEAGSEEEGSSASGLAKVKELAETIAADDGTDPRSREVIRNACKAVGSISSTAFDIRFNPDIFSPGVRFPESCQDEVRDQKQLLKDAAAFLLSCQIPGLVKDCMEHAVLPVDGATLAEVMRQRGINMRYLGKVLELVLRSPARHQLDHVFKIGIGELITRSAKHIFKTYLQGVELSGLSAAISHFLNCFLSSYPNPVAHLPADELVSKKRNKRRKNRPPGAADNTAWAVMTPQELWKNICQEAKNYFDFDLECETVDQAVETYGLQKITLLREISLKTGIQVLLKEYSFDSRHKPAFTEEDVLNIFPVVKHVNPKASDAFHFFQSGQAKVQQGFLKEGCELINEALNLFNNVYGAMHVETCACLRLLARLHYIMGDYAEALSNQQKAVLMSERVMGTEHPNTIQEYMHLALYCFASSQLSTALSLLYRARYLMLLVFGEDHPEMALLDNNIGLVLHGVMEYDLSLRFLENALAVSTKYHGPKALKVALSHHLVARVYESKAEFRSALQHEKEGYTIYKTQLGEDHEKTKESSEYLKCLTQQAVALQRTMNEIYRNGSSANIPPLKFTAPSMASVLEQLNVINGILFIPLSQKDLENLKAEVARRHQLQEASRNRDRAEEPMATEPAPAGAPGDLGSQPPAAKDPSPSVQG

Test [3] concerns the target T3, HeLa cell extract proteins (Homo sapiens, UniProt O00408).
T3 construct: endogenous in cells; host or cells: HeLa cell extract

The target in test [4] is T4, HeLa cell extract proteins (Homo sapiens, UniProt P04179).
T4 construct: endogenous in cells; host or cells: HeLa cell extract
T4 sequence (P04179 25-222): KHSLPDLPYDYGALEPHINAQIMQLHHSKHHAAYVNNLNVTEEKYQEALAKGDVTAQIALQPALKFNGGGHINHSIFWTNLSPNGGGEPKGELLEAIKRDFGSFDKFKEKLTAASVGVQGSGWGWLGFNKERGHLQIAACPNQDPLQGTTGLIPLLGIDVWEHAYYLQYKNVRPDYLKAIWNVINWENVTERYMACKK

T3 sequence (O00408 whole entry): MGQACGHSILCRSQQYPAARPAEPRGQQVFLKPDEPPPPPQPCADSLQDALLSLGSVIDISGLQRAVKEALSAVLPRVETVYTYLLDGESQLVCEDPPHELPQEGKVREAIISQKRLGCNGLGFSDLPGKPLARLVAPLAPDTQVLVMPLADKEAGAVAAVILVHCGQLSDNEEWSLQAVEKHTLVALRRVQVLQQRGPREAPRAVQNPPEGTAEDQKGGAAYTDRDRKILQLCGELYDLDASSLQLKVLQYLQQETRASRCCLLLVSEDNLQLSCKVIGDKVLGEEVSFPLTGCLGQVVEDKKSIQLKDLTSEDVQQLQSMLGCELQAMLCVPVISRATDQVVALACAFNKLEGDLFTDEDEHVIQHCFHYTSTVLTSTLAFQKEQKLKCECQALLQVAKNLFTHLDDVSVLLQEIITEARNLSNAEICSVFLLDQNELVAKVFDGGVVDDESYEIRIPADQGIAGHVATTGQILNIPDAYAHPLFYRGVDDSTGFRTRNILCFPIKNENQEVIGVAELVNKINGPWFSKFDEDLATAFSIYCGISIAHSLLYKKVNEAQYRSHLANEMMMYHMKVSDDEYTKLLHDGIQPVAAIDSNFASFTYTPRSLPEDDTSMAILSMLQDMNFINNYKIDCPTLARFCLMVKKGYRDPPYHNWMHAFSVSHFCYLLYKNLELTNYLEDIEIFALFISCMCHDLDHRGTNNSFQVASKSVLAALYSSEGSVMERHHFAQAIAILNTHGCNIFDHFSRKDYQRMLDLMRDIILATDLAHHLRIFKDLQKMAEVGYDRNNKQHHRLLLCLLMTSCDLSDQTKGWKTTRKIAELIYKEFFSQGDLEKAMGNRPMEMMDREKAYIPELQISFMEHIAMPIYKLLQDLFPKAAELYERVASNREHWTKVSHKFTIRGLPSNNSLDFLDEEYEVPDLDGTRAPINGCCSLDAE

Consider `Nc1nc2c(c(=O)[nH]1)N(C=O)C(CNc1ccc(C(=O)N[C@@H](CCC(=O)O)C(=O)O)cc1)CN2` (stereo partly shown) [LEU, leucovorin], for which the “fold changes relative to vehicle control” value in test [1] (HeLa, protein IPO5) was found to be 0.93; in test [2] (protein KIAA0664, HeLa) it was 1.17; in test [3] (protein PDE2A, HeLa), 0.73; in test [4] (HeLa, protein SOD2) it was 1.14.
On to `Nc1nc2[nH]cc(CCc3ccc(C(=O)N[C@@H](CCC(=O)O)C(=O)O)cc3)c2c(=O)[nH]1` [PTX, pemetrexed], for which the “fold changes relative to vehicle control” value in test [1] turned out to be 0.91; in test [2], 1.07; in test [3] it was 0.71; in test [4] it was 1.29.
With `CCCCCCOc1ccc(Cc2cnc(N)nc2N)cc1` [compound 1], the “fold changes relative to vehicle control” value in test [1] (protein IPO5, HeLa) is listed as 0.99; in test [2] (HeLa, protein KIAA0664), 1.17; in test [3] (protein PDE2A, HeLa), 0.61; in test [4] (protein SOD2, HeLa), 1.91.
The matching figures for `CCCCCCOc1cccc(Cc2cnc(N)nc2N)c1` [compound 2]: 1.27, 1.25, 1.7 and 2.29.
Consider `Nc1nc2cccc(-c3ccccc3)c2n1Cc1ccc(Cl)c(Cl)c1` [compound 3], for which the “fold changes relative to vehicle control” value in test [1] (protein IPO5, HeLa) came to 1.03; in test [2] (HeLa, protein KIAA0664), 1.11; in test [3] (protein PDE2A, HeLa), 0.64; in test [4] (protein SOD2, HeLa), 1.43.
Take `NCCOCCOCC(=O)Nc1nc2ncc(CNc3ccc(C(=O)NC(CCC(=O)O)C(=O)O)cc3)nc2c(=O)[nH]1` (stereo not shown) [compound 6]: the “fold changes relative to vehicle control” value is recorded as 0.99 in test [1] (HeLa, protein IPO5); 1.01 in test [2] (protein KIAA0664, HeLa); 0.79 in test [3] (protein PDE2A, HeLa); 1.65 in test [4] (HeLa, protein SOD2).
Regarding `NCCCNc1ccc(C(=O)NC(CCC(=O)O)C(=O)O)cc1` (stereo not shown) [compound 7], the “fold changes relative to vehicle control” value in test [1] (HeLa, protein IPO5) is recorded as 0.94; in test [2] (protein KIAA0664, HeLa), 1.12; in test [3] (protein PDE2A, HeLa), 0.7; in test [4] (HeLa, protein SOD2) it was 1.35.
